The values that follow are results of earlier work, collected in paper PMC9324670, “Pd(II) Binding Strength of a Novel Ambidentate Dipeptide-Hydroxypyridinonate Ligand: A Solution Equilibrium Study” (Molecules, 2022).

The structures appear in SMILES notation.

On the set-up of data set [1]: method as in doi:10.1016/S0020-1693(00)91874-7. The settings on record: fixed values used in the equilibrium models.
For data set [2] the following is noted: pH-potentiometry.

Turning to `[Cl][Pd-2]([Cl])([Cl])[Cl]` [[PdCl4]^2−], in data set [1], the “logβ (stability constant of the complex in the Pd(II)–Cl^− system)” value (“logβ” below) was 11.56.

As for `[Cl][Pd-]([Cl])[Cl]` [[PdCl3]^−], the “logβ” value in data set [1] is listed as 10.17.

Turning to `Cc1c(O)c(=O)ccn1C` [H(L4), 3-hydroxy-1,2-dimethylpyridin-4(1H)-one], the “pKOH(3)” value in data set [2] is given as 9.76.

With `[Cl][Pd+]` [[PdCl]^+], in data set [1], the “logβ” value is given as 4.47.

For the compound `[Cl][Pd][Cl]` [[PdCl2]], the “logβ” value in data set [1] was 7.76.
